According to BindingDB's records for doi:10.1021/acs.jmedchem.0c00996 (Albany College of Pharmacy and Health Sciences, 2020):

Target: Retinol-binding protein 4 (Homo sapiens, UniProt P02753)
Experiment: Displacement of [3H]-all-trans-retinol from biotinylated human urine derived RBP4 measured after 16 hrs by scintillation proximity assay

Cc1cc(C(=O)O)nc(N2CCC(COc3ccccc3C(F)(F)F)C2)n1 (stereo unspecified) was tested, and the IC50 was 80 nM.
